From ChEMBL document CHEMBL3244225, “Synthesis and biological activity of some vinyl-substituted 2-nitroimidazoles” (J Med Chem, 1977)
Values after ≈ are worked out from the molar mass of the structure shown.

Assays:
Clostridium perfringens = test: Antimicrobial activity against Clostridium perfringens ISS 30543 by tube dilution method; type: functional
Shigella sonnei = test: Antimicrobial activity against Shigella sonnei ATCC 9290 by tube dilution method; type: functional
Trichomonas vaginalis [1] = test: Trichomonastatic activity against Trichomonas vaginalis by tube dilution method; type: functional
Candida albicans = test: Antimicrobial activity against Candida albicans SKF 2270 by tube dilution method; type: functional
[2] = tested on: Mycobacterium tuberculosis; test: Antimicrobial activity against Mycobacterium tuberculosis ATCC 9360 by tube dilution method; type: functional
Streptococcus pyogenes = test: Antimicrobial activity against Streptococcus haemolyticus C 203 by tube dilution method; type: functional
Proteus vulgaris = test: Antimicrobial activity against Proteus vulgaris X19 H ATCC 881 by tube dilution method; type: functional
Escherichia coli = test: Antimicrobial activity against Escherichia coli SKF 12140 by tube dilution method; type: functional
Klebsiella pneumoniae = test: Antimicrobial activity against Klebsiella pneumoniae I.S.M. by tube dilution method; type: functional
Salmonella typhimurium = test: Antimicrobial activity against Salmonella typhimurium Kh by tube dilution method; type: functional, Salmonella enterica subsp. enterica serovar Typhimurium; conditions: Salmonella enterica
[3] = tested on: Mycoplasmoides gallisepticum; test: Antimicrobial activity against Mycoplasma gallisepticum H21 C.Z.B. by tube dilution method; type: functional
Trichomonas vaginalis [4] = test: Trichomonacidal activity against Trichomonas vaginalis by tube dilution method; type: functional
Staphylococcus aureus = test: Antimicrobial activity against Staphylococcus aureus Tour by tube dilution method; type: functional
Streptococcus pneumoniae = test: Antimicrobial activity against Diplococcus pneumoniae UC41 by tube dilution method; type: functional
[5] = tested on: Trichophyton mentagrophytes; test: Antimicrobial activity against Trichophyton mentagrophytes SKF 17410 by tube dilution method; type: functional
Pseudomonas aeruginosa = test: Antimicrobial activity against Pseudomonas aeruginosa ATCC 10145 by tube dilution method; type: functional
[6] = Toxicity in po dosed mouse infected with Trichomonas vaginalis; type: organism-based; conditions: in vivo
Trichomonas vaginalis [7] = test: Ratio of metronidazole ED50 to compound ED50 for Trichomonas vaginalis infected in sc dosed mouse; type: functional
Trichomonas vaginalis [8] = test: Antimicrobial activity against Trichomonas vaginalis infected in sc dosed mouse; type: functional

`CC(/C=C/c1cnc([N+](=O)[O-])n1C)=N\N1CCCC(O)C1` (configuration not stated) showed an MIC (Clostridium perfringens) of 20 µg/mL (≈ 68.2 µM), an MIC (Shigella sonnei) greater than 100 µg/mL and an MIC (Trichomonas vaginalis [1]) of 20 µg/mL (≈ 68.2 µM). For the same compound, the MIC (Candida albicans) was greater than 100 µg/mL, the MIC [2] was 50 µg/mL (≈ 170 µM) and the MIC (Streptococcus pyogenes) was greater than 100 µg/mL. For the same compound, the MIC (Proteus vulgaris) was greater than 100 µg/mL, the MIC (Escherichia coli) was 100 µg/mL (≈ 341 µM) and the MIC (Klebsiella pneumoniae) was greater than 100 µg/mL. For the same compound, the MIC (Salmonella typhimurium) was greater than 100 µg/mL, the MIC [3] was greater than 100 µg/mL and the MIC (Trichomonas vaginalis [4]) was 50 µg/mL (≈ 170 µM). It also gave an MIC (Staphylococcus aureus) of 20 µg/mL (≈ 68.2 µM), an MIC (Streptococcus pneumoniae) of 100 µg/mL (≈ 341 µM) and an MIC [5] of 100 µg/mL (≈ 341 µM). The MIC (Pseudomonas aeruginosa) was greater than 100 µg/mL.

`Cn1c(C=O)cnc1[N+](=O)[O-]` showed an MIC (Clostridium perfringens) of 10 µg/mL (≈ 64.5 µM), an MIC (Shigella sonnei) of 20 µg/mL (≈ 129 µM) and an MIC (Trichomonas vaginalis [1]) of 100 µg/mL (≈ 645 µM). The MIC (Candida albicans) was 50 µg/mL (≈ 322 µM), the MIC [2] was 10 µg/mL (≈ 64.5 µM) and the MIC (Streptococcus pyogenes) was 50 µg/mL (≈ 322 µM). It also gave an MIC (Proteus vulgaris) of 50 µg/mL (≈ 322 µM), an MIC (Escherichia coli) of 10 µg/mL (≈ 64.5 µM) and an MIC (Klebsiella pneumoniae) of 10 µg/mL (≈ 64.5 µM). For the same compound, the MIC (Salmonella typhimurium) was 2 µg/mL (≈ 12.9 µM), the MIC (Trichomonas vaginalis [4]) was greater than 100 µg/mL and the MIC (Staphylococcus aureus) was 50 µg/mL (≈ 322 µM). For the same compound, the MIC (Streptococcus pneumoniae) was 20 µg/mL (≈ 129 µM), the MIC [5] was 10 µg/mL (≈ 64.5 µM) and the MIC (Pseudomonas aeruginosa) was 10 µg/mL (≈ 64.5 µM).

Work on `Cc1cnc(/N=C/C=C/c2cnc([N+](=O)[O-])n2C)n1C` yielded an MIC (Clostridium perfringens) of 10 µg/mL (≈ 36.5 µM), an MIC (Shigella sonnei) greater than 20 µg/mL and an MIC (Trichomonas vaginalis [1]) of 50 µg/mL (≈ 182 µM). For the same compound, the MIC (Candida albicans) was greater than 20 µg/mL, the MIC [2] was greater than 20 µg/mL and the MIC (Streptococcus pyogenes) was greater than 20 µg/mL. For the same compound, the MIC (Proteus vulgaris) was greater than 20 µg/mL, the MIC (Escherichia coli) was greater than 20 µg/mL and the MIC (Klebsiella pneumoniae) was greater than 20 µg/mL. The MIC (Salmonella typhimurium) was greater than 20 µg/mL, the MIC [3] was greater than 20 µg/mL and the MIC (Trichomonas vaginalis [4]) was 100 µg/mL (≈ 365 µM). For the same compound, the MIC (Staphylococcus aureus) was greater than 20 µg/mL, the MIC (Streptococcus pneumoniae) was greater than 20 µg/mL and the MIC [5] was greater than 20 µg/mL. The MIC (Pseudomonas aeruginosa) was greater than 20 µg/mL.

Compound `COC(=O)/C=C/c1cnc([N+](=O)[O-])n1C` has an MIC (Clostridium perfringens) greater than 100 µg/mL, an MIC (Shigella sonnei) of 100 µg/mL (≈ 474 µM) and an MIC (Trichomonas vaginalis [1]) of 10 µg/mL (≈ 47.4 µM). It also gave an MIC (Candida albicans) greater than 100 µg/mL, an LD50 [6] greater than 1000 mg/kg and an MIC [2] of 50 µg/mL (≈ 237 µM). The “Ratio ED50” value (Trichomonas vaginalis [7]) was greater than 2.8, the MIC (Streptococcus pyogenes) was greater than 100 µg/mL and the MIC (Proteus vulgaris) was greater than 100 µg/mL. The MIC (Escherichia coli) was 50 µg/mL (≈ 237 µM), the MIC (Klebsiella pneumoniae) was greater than 100 µg/mL and the MIC (Salmonella typhimurium) was 100 µg/mL (≈ 474 µM). The MIC [3] was greater than 100 µg/mL, the MIC (Trichomonas vaginalis [4]) was 50 µg/mL (≈ 237 µM) and the MIC (Staphylococcus aureus) was greater than 100 µg/mL. For the same compound, the MIC (Streptococcus pneumoniae) was greater than 100 µg/mL, the MIC [5] was 100 µg/mL (≈ 474 µM) and the MIC (Pseudomonas aeruginosa) was greater than 100 µg/mL.

For `Cc1ncc([N+](=O)[O-])n1CCO` [METRONIDAZOLE], the MIC (Trichomonas vaginalis [1]) was 0.5 µg/mL (≈ 2.92 µM), the ED50 (Trichomonas vaginalis [8]) was 12.3 mg/kg and the MIC (Trichomonas vaginalis [4]) was 2 µg/mL (≈ 11.7 µM).

In the case of `CC(/C=C/c1cnc([N+](=O)[O-])n1C)=N\N1CCN(CCO)CC1`, the MIC (Clostridium perfringens) is reported as 5 µg/mL (≈ 15.5 µM), the MIC (Shigella sonnei) is reported as greater than 100 µg/mL and the MIC (Trichomonas vaginalis [1]) is reported as 20 µg/mL (≈ 62 µM). It also gave an MIC (Candida albicans) greater than 100 µg/mL, an MIC [2] of 50 µg/mL (≈ 155 µM) and an MIC (Streptococcus pyogenes) of 100 µg/mL (≈ 310 µM). The MIC (Proteus vulgaris) was greater than 100 µg/mL, the MIC (Escherichia coli) was 100 µg/mL (≈ 310 µM) and the MIC (Klebsiella pneumoniae) was greater than 100 µg/mL. It also gave an MIC (Salmonella typhimurium) greater than 100 µg/mL, an MIC [3] greater than 100 µg/mL and an MIC (Trichomonas vaginalis [4]) of 50 µg/mL (≈ 155 µM). It also gave an MIC (Staphylococcus aureus) of 50 µg/mL (≈ 155 µM), an MIC (Streptococcus pneumoniae) of 100 µg/mL (≈ 310 µM) and an MIC [5] greater than 100 µg/mL. For the same compound, the MIC (Pseudomonas aeruginosa) was greater than 100 µg/mL.

`CC(/C=C/c1cnc([N+](=O)[O-])n1C)=N\N(C)C` gave an MIC (Clostridium perfringens) of 10 µg/mL (≈ 42.1 µM), an MIC (Shigella sonnei) greater than 100 µg/mL and an MIC (Trichomonas vaginalis [1]) of 20 µg/mL (≈ 84.3 µM). For the same compound, the MIC (Candida albicans) was greater than 100 µg/mL, the MIC [2] was 20 µg/mL (≈ 84.3 µM) and the MIC (Streptococcus pyogenes) was greater than 100 µg/mL. For the same compound, the MIC (Proteus vulgaris) was greater than 100 µg/mL, the MIC (Escherichia coli) was 50 µg/mL (≈ 211 µM) and the MIC (Klebsiella pneumoniae) was greater than 100 µg/mL. It also gave an MIC (Salmonella typhimurium) greater than 100 µg/mL, an MIC [3] greater than 100 µg/mL and an MIC (Trichomonas vaginalis [4]) of 50 µg/mL (≈ 211 µM). It also gave an MIC (Staphylococcus aureus) of 100 µg/mL (≈ 421 µM), an MIC (Streptococcus pneumoniae) greater than 100 µg/mL and an MIC [5] greater than 100 µg/mL. It also gave an MIC (Pseudomonas aeruginosa) greater than 100 µg/mL.

`COC(=O)c1cnc([N+](=O)[O-])n1C` showed an MIC (Clostridium perfringens) of 5 µg/mL (≈ 27 µM), an MIC (Shigella sonnei) of 100 µg/mL (≈ 540 µM) and an MIC (Trichomonas vaginalis [1]) greater than 50 µg/mL. It also gave an MIC (Candida albicans) greater than 100 µg/mL, an MIC [2] greater than 100 µg/mL and an MIC (Streptococcus pyogenes) greater than 100 µg/mL. The MIC (Proteus vulgaris) was greater than 100 µg/mL, the MIC (Escherichia coli) was 20 µg/mL (≈ 108 µM) and the MIC (Klebsiella pneumoniae) was greater than 100 µg/mL. The MIC (Salmonella typhimurium) was 100 µg/mL (≈ 540 µM), the MIC [3] was greater than 100 µg/mL and the MIC (Staphylococcus aureus) was 50 µg/mL (≈ 270 µM). It also gave an MIC (Streptococcus pneumoniae) of 50 µg/mL (≈ 270 µM), an MIC [5] greater than 100 µg/mL and an MIC (Pseudomonas aeruginosa) greater than 100 µg/mL.

Work on `CCOC(=O)/C=C/c1cnc([N+](=O)[O-])n1C` yielded an MIC (Clostridium perfringens) of 50 µg/mL (≈ 222 µM), an MIC (Shigella sonnei) greater than 100 µg/mL and an MIC (Trichomonas vaginalis [1]) of 20 µg/mL (≈ 88.8 µM). It also gave an MIC (Candida albicans) greater than 100 µg/mL, an MIC [2] of 50 µg/mL (≈ 222 µM) and an MIC (Streptococcus pyogenes) of 100 µg/mL (≈ 444 µM). The MIC (Proteus vulgaris) was greater than 100 µg/mL, the MIC (Escherichia coli) was 50 µg/mL (≈ 222 µM) and the MIC (Klebsiella pneumoniae) was greater than 100 µg/mL. It also gave an MIC (Salmonella typhimurium) greater than 100 µg/mL, an MIC [3] of 100 µg/mL (≈ 444 µM) and an MIC (Trichomonas vaginalis [4]) of 100 µg/mL (≈ 444 µM). It also gave an MIC (Staphylococcus aureus) greater than 100 µg/mL, an MIC (Streptococcus pneumoniae) of 100 µg/mL (≈ 444 µM) and an MIC [5] of 100 µg/mL (≈ 444 µM). It also gave an MIC (Pseudomonas aeruginosa) greater than 100 µg/mL.

Compound `Cn1c(/C=[N+](/C)[O-])cnc1[N+](=O)[O-]` has an MIC (Clostridium perfringens) of 10 µg/mL (≈ 54.3 µM), an MIC (Shigella sonnei) of 20 µg/mL (≈ 109 µM) and an MIC (Trichomonas vaginalis [1]) of 100 µg/mL (≈ 543 µM). The MIC (Candida albicans) was greater than 100 µg/mL, the MIC [2] was 50 µg/mL (≈ 272 µM) and the MIC (Streptococcus pyogenes) was 50 µg/mL (≈ 272 µM). It also gave an MIC (Proteus vulgaris) of 20 µg/mL (≈ 109 µM), an MIC (Escherichia coli) of 10 µg/mL (≈ 54.3 µM) and an MIC (Klebsiella pneumoniae) of 50 µg/mL (≈ 272 µM). It also gave an MIC (Salmonella typhimurium) of 20 µg/mL (≈ 109 µM), an MIC [3] of 20 µg/mL (≈ 109 µM) and an MIC (Trichomonas vaginalis [4]) greater than 100 µg/mL. It also gave an MIC (Staphylococcus aureus) of 50 µg/mL (≈ 272 µM), an MIC (Streptococcus pneumoniae) of 50 µg/mL (≈ 272 µM) and an MIC [5] greater than 100 µg/mL. The MIC (Pseudomonas aeruginosa) was 100 µg/mL (≈ 543 µM).
